Experimental data reported in PubChem BioAssay AID192 (DTP/NCI, 2004).
Inconclusive results and toxic doses are left out. How the source made its calls: active means survival T/C of 150% or more; inactive means T/C below 125% in these data.

Tested on: BDF1 mice, B16 melanoma ip, median survival T/C
Assay: NCI In Vivo Anticancer Drug Screen. Data for tumor model B16 Melanoma (intraperitoneal) in B6D2F1 (BDF1) mice
Conditions: endpoint: median survival time, higher = longer survival
Method in brief: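 Transplantable tumor model; survival or tumor size measured; reported as T/C, treated over vehicle control.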

[1] = dose: 6.25 mg/kg/injection, schedule: Q01DX009 (ip), vehicle: saline
[2] = dose: 12.5 mg/kg/injection, schedule: Q01DX009 (ip), vehicle: saline
[3] = dose: 50.0 mg/kg/injection, schedule: Q01DX009 (ip), vehicle: Klucel (hydroxypropylcellulose) (HPC)
[4] = dose: 6.25 mg/kg/injection, schedule: Q01DX009 (ip), vehicle: Klucel (hydroxypropylcellulose) (HPC)
[5] = dose: 12.5 mg/kg/injection, schedule: Q01DX009 (ip), vehicle: Klucel (hydroxypropylcellulose) (HPC)
[6] = dose: 25.0 mg/kg/injection, schedule: Q01DX009 (ip), vehicle: Klucel (hydroxypropylcellulose) (HPC)
[7] = dose: 25.0 mg/kg/injection, schedule: Q01DX009 (ip), vehicle: saline
[8] = dose: 50.0 mg/kg/injection, schedule: Q01DX009 (ip), vehicle: saline
[9] = dose: 100.0 mg/kg/injection, schedule: Q01DX009 (ip), vehicle: saline
[10] = dose: 100.0 mg/kg/injection, schedule: Q01DX009 (ip), vehicle: saline with Tween-80
[11] = dose: 200.0 mg/kg/injection, schedule: Q01DX009 (ip), vehicle: saline with Tween-80
[12] = dose: 400.0 mg/kg/injection, schedule: Q01DX009 (ip), vehicle: saline with Tween-80

Measured: T/C

CC(C)=CCOc1ccc2ccc(=O)oc2c1
inactive: dose: 5.0 mg/kg/injection, schedule: Q01DX009 (ip), vehicle: saline with Tween-80 108 % of control | dose: 10.0 mg/kg/injection, schedule: Q01DX009 (ip), vehicle: saline with Tween-80 105 % of control | dose: 20.0 mg/kg/injection, schedule: Q01DX009 (ip), vehicle: saline with Tween-80 99 % of control

NC(CC(=O)CCl)C(=O)O (configuration not stated)
inactive: dose: 3.13 mg/kg/injection, schedule: Q01DX009 (ip), vehicle: saline 109 % of control | [1] 118 % of control

OCC1OC(n2cnc3cncnc32)C(O)C1O (configuration not stated)
inactive: [2] 115 % of control

CCc1ccc(NC(=O)NC(C)C)cc1
inactive: [3] 112 % of control | dose: 100.0 mg/kg/injection, schedule: Q01DX009 (ip), vehicle: Klucel (hydroxypropylcellulose) (HPC) 109 % of control | dose: 200.0 mg/kg/injection, schedule: Q01DX009 (ip), vehicle: Klucel (hydroxypropylcellulose) (HPC) 103 % of control

CCCCCCCCCCCCCCC/C([O-])=N/[N+](C)(C)CC(C)O (configuration not stated)
inactive: dose: 25.0 mg/kg/injection, schedule: Q01DX001 (ip), vehicle: saline 97 % of control | dose: 50.0 mg/kg/injection, schedule: Q01DX001 (ip), vehicle: saline 96 % of control | dose: 100.0 mg/kg/injection, schedule: Q01DX001 (ip), vehicle: saline 95 % of control | dose: 200.0 mg/kg/injection, schedule: Q01DX001 (ip), vehicle: saline 95 % of control

CC1CCC2(OC1)OC1C(O)C3C4CCC5CC(OC6OC(CO)C(OC7OC(CO)C(O)C(OC8OCC(O)C(O)C8O)C7OC7OC(CO)C(O)C(OC8OC(CO)C(O)C(O)C8O)C7O)C(O)C6O)C(O)CC5(C)C4CCC3(C)C1C2C (configuration not stated)
inactive: dose: 0.62 mg/kg/injection, schedule: Q01DX009 (ip), vehicle: saline 109 % of control | dose: 1.25 mg/kg/injection, schedule: Q01DX009 (ip), vehicle: saline 99 % of control | dose: 2.5 mg/kg/injection, schedule: Q01DX009 (ip), vehicle: saline 103 % of control | dose: 5.0 mg/kg/injection, schedule: Q01DX009 (ip), vehicle: saline 92 % of control

C=C1C(=O)OC2/C=C(\C)CC/C=C(/C=O)C(OC)C(OC(=O)C(C)C)C12 (configuration not stated)
inactive: [4] 113 % of control | [5] 111 % of control | [6] 104 % of control

COc1ccccc1N1CCN(CCCC(=O)c2ccc(F)cc2)CC1
inactive: dose: 0.09 mg/kg/injection, schedule: Q04DX003 (ip), vehicle: Klucel (hydroxypropylcellulose) (HPC) 93 % of control | dose: 0.19 mg/kg/injection, schedule: Q04DX003 (ip), vehicle: Klucel (hydroxypropylcellulose) (HPC) 91 % of control | dose: 0.39 mg/kg/injection, schedule: Q04DX003 (ip), vehicle: Klucel (hydroxypropylcellulose) (HPC) 96 % of control | dose: 0.78 mg/kg/injection, schedule: Q04DX003 (ip), vehicle: Klucel (hydroxypropylcellulose) (HPC) 87 % of control | dose: 1.56 mg/kg/injection, schedule: Q04DX003 (ip), vehicle: Klucel (hydroxypropylcellulose) (HPC) 90 % of control | [4] 92 % of control | [5] 92 % of control | [6] 100 % of control | [3] 105 % of control

CCOC(=O)c1ccc(NC(=O)Nc2nc(C)cs2)cc1
inactive: dose: 25.0 mg/kg/injection, schedule: Q01DX009 (ip), vehicle: distilled water + Tween-80 111 % of control | dose: 200.0 mg/kg/injection, schedule: Q01DX009 (ip), vehicle: distilled water + Tween-80 120 % of control

COc1nc(=O)n(C2C=CC(=O)O2)cc1F (configuration not stated)
inactive: [1] 101 % of control | [2] 95 % of control | [7] 89 % of control | [8] 87 % of control | [9] 91 % of control

O=C(O)c1c(-c2ccccc2)[nH]c2cc(Cl)ccc2c1=O
inactive: [2] 100 % of control | [7] 102 % of control | [8] 102 % of control | dose: 100.0 mg/kg/injection, schedule: Q04DX003 (ip), vehicle: saline with Tween-80 109 % of control | dose: 200.0 mg/kg/injection, schedule: Q01DX005 (ip), vehicle: saline 95 % of control | dose: 200.0 mg/kg/injection, schedule: Q04DX003 (ip), vehicle: saline with Tween-80 102 % of control

CCC(=O)Nc1ccc(C)c(Cl)c1
inactive: [10] 105 % of control | [11] 105 % of control | [12] 115 % of control

Cc1c([C@H](C)[C@@H]2NC[C@@H](C)C[C@H]2O)ccc2c1C[C@H]1[C@H]2CC=C2C[C@@H](O)CC[C@@]21C
inactive: dose: 1.5 mg/kg/injection, schedule: Q01DX009 (ip), vehicle: saline 97 % of control | dose: 3.0 mg/kg/injection, schedule: Q01DX009 (ip), vehicle: saline 104 % of control

N#CCCc1ccc(O)cc1
inactive: dose: 50.0 mg/kg/injection, schedule: Q01DX009 (ip), vehicle: gum acacia 100 % of control | dose: 50.0 mg/kg/injection, schedule: Q04DX003 (ip), vehicle: gum acacia 100 % of control | dose: 100.0 mg/kg/injection, schedule: Q01DX009 (ip), vehicle: gum acacia 89 % of control | dose: 100.0 mg/kg/injection, schedule: Q04DX003 (ip), vehicle: gum acacia 106 % of control | dose: 200.0 mg/kg/injection, schedule: Q01DX009 (ip), vehicle: gum acacia 91 % of control | dose: 200.0 mg/kg/injection, schedule: Q04DX003 (ip), vehicle: gum acacia 95 % of control

CC(C)[C@]12O[C@H]1[C@@H]1O[C@]13[C@]1(O[C@H]1C[C@H]1C4=C(C(=O)OC4)[C@@H](O)C[C@@]13C)[C@@H]2O
inactive: dose: 12.5 micrograms/kg/injection, schedule: Q01DX009 (ip), vehicle: saline + alcohol 112 % of control | dose: 25.0 micrograms/kg/injection, schedule: Q01DX009 (ip), vehicle: saline + alcohol 110 % of control | dose: 50.0 micrograms/kg/injection, schedule: Q01DX009 (ip), vehicle: saline + alcohol 110 % of control | dose: 63.0 micrograms/kg/injection, schedule: Q01DX009 (ip), vehicle: saline + alcohol 102 % of control | dose: 100.0 micrograms/kg/injection, schedule: Q01DX009 (ip), vehicle: saline + alcohol 122 % of control | dose: 125.0 micrograms/kg/injection, schedule: Q01DX009 (ip), vehicle: saline + alcohol 111 % of control | dose: 250.0 micrograms/kg/injection, schedule: Q01DX009 (ip), vehicle: saline + alcohol 107 % of control

O=C(O)CNC(=O)C(Br)Cc1ccccc1 (configuration not stated)
inactive: dose: 25.0 mg/kg/injection, schedule: Q01DX009 (ip), vehicle: saline with Tween-80 91 % of control | dose: 50.0 mg/kg/injection, schedule: Q01DX009 (ip), vehicle: saline with Tween-80 88 % of control | [10] 91 % of control | [12] 89 % of control

C[N+](C)(C)c1ncnc2nc[nH]c12
inactive: [2] 92 % of control | [7] 89 % of control | [8] 93 % of control | [9] 103 % of control | dose: 200.0 mg/kg/injection, schedule: Q01DX009 (ip), vehicle: saline 87 % of control

CCCCCCCCCC(O)CCCCC (configuration not stated)
inactive: dose: 75.0 mg/kg/injection, schedule: Q04DX003 (ip), vehicle: saline with Tween-80 102 % of control | dose: 150.0 mg/kg/injection, schedule: Q04DX003 (ip), vehicle: saline with Tween-80 94 % of control | dose: 300.0 mg/kg/injection, schedule: Q04DX003 (ip), vehicle: saline with Tween-80 100 % of control

Cc1ccc(C)c(NC(=O)Nc2ccccc2C)c1
inactive: dose: 50.0 mg/kg/injection, schedule: Q04DX003 (ip), vehicle: Klucel (hydroxypropylcellulose) (HPC) 87 % of control | dose: 200.0 mg/kg/injection, schedule: Q04DX003 (ip), vehicle: Klucel (hydroxypropylcellulose) (HPC) 87 % of control

Cc1cc2ncn(C(=O)Nc3ccccc3)c2cc1C
inactive: [10] 100 % of control | [11] 95 % of control | [12] 88 % of control
